Data as given in patent US11021461B2, “Artificial catalyst system for selective acylation of chromosome protein” (THE UNIVERSITY OF TOKYO, priority 2015, dated 2021).
Blank lines part the entries; values can stand above or below the compound they belong to. Square brackets hold non-standard residues; d marks the D form. Peptide text beside a SMILES is read from it. * marks the point of attachment. ξ: configuration not given here. Thr(3ξ) = CC(O)[C@H](N)C(=O)O; X1 = CN(CCC(=O)*)c1ccnc(CS)c1; ξR = N=C(N)NCCCC(N)C(=O)O; ξS = NC(CO)C(=O)O

Columns and labels:
Assay type in all cases: biochemical
[1] = target: T1, histones (reconstituted nucleosome) (Homo sapiens, UniProt P04908+P06899+P62805+P68431); assay: Protein selective acetylation of reconstituted nucleosome mixed with cytoplasm fraction (western blotting, acetylated lysine antibody); conditions: reconstituted nucleosome + cytoplasm fraction 15%, Ligand-DSH 2 to 5 μM, acyl donor 1 mM, TCEP 100 μM, room temperature, 5 hours; FIG. 3A
T1 construct: made in house
Excerpt: (§1) Proteins were separated on a 4-20% SDS-PAGE gel, and transferred to a PVDF membrane, followed by blocking with 5% skim milk suspended in TBST for the reaction between the PVDF membrane and primary antibodies. The primary antibodies used were as follows.
(§2) Acetylated-lysine antibody (#9441, Cell Signaling), anti-acetyl Histone H4 (Lys77) (ABE186, Millipore), anti-acetyl Histone H2B (Lys120) (ab176430, Abcam), malonylated-lysine antibody (PTM-901, PTM Biolabs), glutarylated-lysine antibody (PTM-1151, PTM Biolabs), butyrylated-lysine antibody (PTM-301, PTM Biolabs), 2-hydroisobutyrylated antibody (PTM-801, PTM Biolabs), streptavidin-HRP (#3999S, Cell Signaling).
(§3) After washing with TBST, a secondary antibody (Anti-Rabbit IgG, HRP-linked, NA934V, GE) was reacted. The PVDF membrane was treated with a chemilluminescent detection reagent Luminata Forte Western HRP Substrate (Millipore), and the detection was performed using ImageQuant LAS 4000 (GE healthcare life sciences).
(§4) A buffer solution (20 mM Tris-HCl, pH 7.5) containing a reconstituted nucleosome (33 μg/mL 601 DNA) and a cytoplasm fraction (15%) was added with Ligand-DSH (2 to 5 μM), acyl CoA (1 mM), and TCEP (100 μM), followed by reaction at room temperature for 5 hours. Thereafter, western blotting was performed.
First, protein selectivity was evaluated. A reconstituted nucleosome prepared in accordance with a known method (Tachiwana, H. et al., Proceedings of the National Academy of Sciences of the United States of America 2010, 107, 10454-10459) and cytoplasm fractions acquired from living cells were mixed. Then, evaluation was carried out on whether or not the newly developed catalyst could selectively acetylate histones by western blotting using an acetylation lysine antibody (FIG. 3A).

[2] = target: T2, reconstituted nucleosome (H2BK120, H4K77) (Homo sapiens, UniProt P04908+P06899+P62805+P68431); assay: Lysine residue selective acetylation of reconstituted nucleosome (western blotting, residue-selective acetylated lysine antibodies); conditions: with acetyl CoA, FIG. 3B
T2 construct: made in house
Excerpt: as §1, §2
as §3, with “sciences). […]” for “sciences).”
Next, the selectivity of lysine residues in histones was evaluated. A similar reaction was evaluated by western blotting using a residue-selective acetylation lysine antibody.

reconstituted nucleosome = target: T3, reconstituted nucleosome (Homo sapiens, UniProt P04908+P06899+P62805+P68431); assay: Yield determination by LC-MS/MS and exhaustive analysis of lysine residue selectivity; conditions: for lysine residue selectivity: acetylation of reconstituted nucleosome, FIGS. 5 and 6
T3 construct: made in house
Procedure: Cooled trichloroacetic acid (30 μL) was added, and the resultant was placed on ice for 30 minutes. After the centrifugation (4° C., 15000 rpm, 5 minutes), the supernatant was removed. After further centrifugation (4° C., 15000 rpm, 1 minute), the supernatant was again removed. Cooled acetone (450 μL) was added. After the centrifugation (4° C., 15000 rpm, 5 minutes), the supernatant was removed. After further centrifugation (4° C., 15000 rpm, 1 minute), the supernatant was again removed. The above procedure was repeated once more. […] A 1M sulfuric acid (25 μL) was added and placed on ice for 1 hour, followed by centrifugation (4° C., 15000 rpm, 5 minutes), and the supernatant was collected. Centrifugation (4° C., 15000 rpm, 1 minute) was performed again to collect the supernatant to combine with the earlier supernatant. The resultant was added with acetone (500 μL), followed by sufficient stirring, and was placed overnight at −30° C. After the centrifugation (4° C., 15000 rpm, 5 minutes), the supernatant was removed. After further centrifugation (4° C., 15000 rpm, 1 minute), the supernatant was again removed. After drying was performed with a centrifugal evaporator for 10 minutes, an aqueous solution of ammonium bicarbonate (0.1 M, 20 μL) was added. The resultant was added with a mixture of propionic anhydride and methanol (1:3, 20 μL) prepared immediately before, further added with ammonia water (15 μL), and was placed at room temperature for 30 minutes. Drying was performed with a centrifugal evaporator for 75 minutes, followed by treatment with a digestive enzyme.
In the case of trypsin: an aqueous solution of ammonium bicarbonate (0.1M, 50 μL) and trypsin (1 μg) were added, followed by reaction at 37° C. for 21 hours.
In the case of chymotrypsin: 100 mM Tris-HCl, 10 mM CaCl2 (50 μL, pH8.0), and chymotrypsin (8 μg) were added, followed by reaction at 25° C. for 21 hours.
A 5% aqueous solution of formic acid (25 μL) was added, followed by drying with a centrifugal evaporator for 75 minutes. The residue was dissolved in a 0.1% aqueous solution of formic acid (15 μL), and the resultant was used for LC-MS/MS.
Eksigent ekspert™ MicroLC 200
ESI-Q-TOF MS, positive-ion mode.
Precursor ions are designated, and for each of the precursor ions, 2 to 4 MS/MS fragment ions having the highest strength were selected. Ion extraction (±0.5 Da) was performed for the designated precursor ions and the MS/MS fragment ions, and the yield was calculated in accordance with the equation below.
For a chromatogram obtained by performing measurement in an Information Dependent Acquisition Mode, the yield was determined in accordance with the following equation from the peak area subjected to ion extraction (±0.5 Da) after designating the precursor ions. yield (%)=[A/A+P]×100 (here, A represents a peak area of an acetylated peptide and P represents a peak area of a propionylated peptide)

[3] = target: T1, histones (reconstituted nucleosome); assay: Acylation other than acetylation with catalyst and various acyl CoA (western blotting); conditions: catalyst with the corresponding acyl CoA; FIG. 9
Excerpt: as §1, §2, §3, §4
In light of the above, a study was carried out on whether or not acylation other than acetylation would be possible using the developed catalyst.

cytoplasm proteins = assay: Comparison of reactivity of acetyl group donors with cytoplasm proteins (western blotting, anti-acetylated lysine antibody); conditions: acetyl group donor 1 mM, cytoplasm fraction 20%, room temperature, 10 hours; FIG. 1B
Procedure: Approximately 10^6 cells were detached from a culture dish by a trypsin treatment. After washed with PBS, the cell pellets were suspended in a cooled, cell lysis buffer [50 mM Tris (pH 7.5), 300 mMNaCl, 0.3% Triton X-100, protease inhibitor cocktail, and 1 mM PMSF], and placed on ice for 30 minutes. After the centrifugation (4° C., 1500 rpm, 2 minutes), the supernatant was collected as a cytoplasm fraction.
as §1, §2
as §3, with “sciences). […]” for “sciences).”

[4] = Ligand-DSH 2 μM, acetyl CoA 1 mM, TCEP 100 μM, 5 hours

Compound: CC(=O)NCCSC(C)=O
histone-selective acetylation [1]: histone-selective acetylation was observed in the same way

Compound: CSCC[C@H](NC(=O)CNC(=O)CCN(C)c1ccnc(CS)c1)C(=O)NC(CCCNC(=N)N)C(=O)N[C@@H](CC(C)C)C(=O)NC(CCCNC(=N)N)C(=O)N[C@@H](CO)C(=O)NCC(=O)N[C@@H](CCCNC(=N)N)C(=O)NC(CO)C(=O)N[C@H](C(=O)NCC(N)=O)C(C)O (stereo partly shown) [LANA-DSH] (X1-GM[ξR]L[ξR]SGR[ξS][Thr(3ξ)]G-NH2)
histone-selective acetylation [1]: histone-selective acetylation was achieved
acetylation of H2BK120 (western blotting) ([2]; anti-acetyl Histone H2B (Lys120)): strongly acetylated
acetylation yield of H2BK120 (reconstituted nucleosome; [4]): 54%
lysine residue selectivity (reconstituted nucleosome): extremely high
2-hydroxy-iso-butyrylation [3]: enabled
biotinylation [3]: enabled
butyrylation [3]: enabled
glutarylation [3]: enabled
malonylation [3]: enabled

Compound: CON(C(C)=O)C(C)=O [NMD, N-methoxydiacetamide]
non-selective acetylation of cytoplasm proteins (cytoplasm proteins): non-selectively acetylated a large quantity of protein

acetylation of H4K77 (western blotting) ([2]; anti-acetyl Histone H4 (Lys77)): strongly acetylated
acetylation yield of H3K36 (reconstituted nucleosome; [4]): 14%
acetylation yield of H3K56 (reconstituted nucleosome; [4]): 9%
acetylation yield of H4K77 (reconstituted nucleosome; [4]): 14%
lysine residue selectivity (reconstituted nucleosome): high
Compound: CN(CCCNC(=O)CCN(C)c1ccnc(CS)c1)CCCNC(=O)c1cc(NC(=O)c2cc(NC(=O)c3cc(NC(=O)c4nc(NC(=O)CCCNC(=O)c5cc(NC(=O)c6cc(NC(=O)c7cc(NC(=O)c8nccn8C)cn7C)cn6C)cn5C)cn4C)cn3C)cn2C)cn1C [PIP-DSH]
histone-selective acetylation [1]: histone-selective acetylation was achieved

histone-selective acetylation [1]: acetylation did not proceed
Compound: CC(=O)SCCNC(=O)CCNC(=O)[C@H](O)C(C)(C)COP(=O)(O)OP(=O)(O)OC[C@H]1O[C@@H](n2cnc3c(N)ncnc32)[C@H](O)[C@@H]1OP(=O)(O)O [acetyl CoA, reference compound]
non-selective acetylation of cytoplasm proteins (cytoplasm proteins): did not cause such non-selective acetylation
